Test results from PubChem BioAssay AID504559 (Johns Hopkins Ion Channel Center, 2011).
Calls of active or inactive are those of the source.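 The calls were made as follows: active = dose-dependent block of Kir2.1 potassium channel current at -100 mV within the tested dose range; inactive = no dose-dependent block of that current.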

Target: Inward rectifier potassium channel 2 (Mus musculus) (UniProt P35561)
Assay: blockers of mouse Kir2.1 inward rectifier current – cell-based, IonWorks automated patch clamp, -100 mV, SAR follow-up (AID 504559)
Conditions: Kir2.1 cell line, IonWorks patch clamp current at -100 mV; for current change, negative = inhibition: at 30 µM (top of the series)

Inward rectifier potassium channel 2 (Mus musculus), sequence (P35561 whole entry, looked up): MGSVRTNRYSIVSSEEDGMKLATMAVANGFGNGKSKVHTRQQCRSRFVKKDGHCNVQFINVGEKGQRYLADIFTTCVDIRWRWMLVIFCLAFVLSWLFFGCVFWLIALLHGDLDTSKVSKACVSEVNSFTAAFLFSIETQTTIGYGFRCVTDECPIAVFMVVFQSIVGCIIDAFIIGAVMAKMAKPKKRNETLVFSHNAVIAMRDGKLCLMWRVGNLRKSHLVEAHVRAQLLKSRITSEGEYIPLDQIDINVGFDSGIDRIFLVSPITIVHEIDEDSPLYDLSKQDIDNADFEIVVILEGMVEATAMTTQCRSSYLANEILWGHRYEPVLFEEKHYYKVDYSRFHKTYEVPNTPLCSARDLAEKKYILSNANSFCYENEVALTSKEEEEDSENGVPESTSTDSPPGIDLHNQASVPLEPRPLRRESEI

current change, negative = inhibition | IC50 [µM] | Structure (SMILES)
inactive |  | C[C@@H](NS(C)(=O)=O)c1ccccc1
 | 30.6 | C[C@@H](NS(=O)(=O)c1cccc(Br)c1)c1ccccc1
 | 21.6 | C[C@H](NS(=O)(=O)c1ccc(Cl)cc1)c1ccccc1
inactive |  | C[C@H](NS(=O)(=O)c1ccccc1)c1ccccc1
 | 21.3 | C[C@H](NS(=O)(=O)c1ccc(Br)cc1)c1ccccc1
inactive |  | C[C@H](NS(=O)(=O)c1ccccc1Br)c1ccccc1
inactive |  | Cc1ccc2nc(N3CCN(CCO)CC3)nc(-c3ccccc3)c2c1
inactive |  | Cc1ccc2nc(NCc3ccccc3)[nH]c2c1
inactive |  | C[C@H](NS(=O)(=O)c1cc(Cl)cc(Cl)c1O)c1ccccc1
inactive |  | C[C@@H](NS(=O)(=O)c1ccc(Cl)cc1)c1ccccc1
inactive |  | c1ccc(CNc2c3ccccc3nc3ccccc23)cc1

Further lines, the compound ahead of its results:

Structure (SMILES) | current change, negative = inhibition | IC50 [µM]
O=C(NCC1CCCCN1)c1cc(OCC(F)(F)F)ccc1OCC(F)(F)F (configuration not stated) | inactive | 
Cc1noc(C)c1COC(=O)CCN1c2ccccc2Sc2ccccc21 | inactive | 
C[C@H](NS(C)(=O)=O)c1ccccc1 | inactive | 
C[C@@H](NS(=O)(=O)c1cc(Cl)cc(Cl)c1O)c1ccccc1 | inactive | 
C[C@@H](NS(=O)(=O)c1ccccc1)c1ccccc1 | inactive | 
C[C@@H](NS(=O)(=O)c1ccccc1Br)c1ccccc1 | inactive | 
Cc1ccc(S(=O)(=O)N[C@H](C)c2ccccc2)cc1 | inactive | 
CC(O)CNCCCOc1cccc(Oc2ccccc2)c1 (configuration not stated) |  | 11.4
C[C@H](NS(=O)(=O)c1cccc(Br)c1)c1ccccc1 |  | 30.9
Cc1ccc(Nc2cc(C)nc3c(C)cccc23)cc1 | inactive | 
Cc1ccc(C)c(OCCCNCc2ccccc2)c1 |  | 20.5
